Experimental data reported in patent publication US10183944B2 (Asana Biosciences, LLC, priority 2011, dated 2019).
Where a name gives a salt, the structure may show the parent alone. Read-outs that look alike come from different tables or passages of the source.

Assays:
RBL2H3 cells = assay: Degranulation assay: β-hexosaminidase release during immune complex mediated degranulation; assay type: cell-based, rat; settings: Assay Protocol B (96 well format); for EC50: read-out: Degranulation EC50; for inhibition at 1 µM: read-out: Degranulation % inhibition at 1 μM
Procedure: The objective of this assay was to examine by Fluorescence method the effect of compounds on β-hexosaminidase release during immune complex mediated degranulation in RBL2H3 cells. Compounds were tested for their ability to inhibit the ability of this immune complex to mediate β-hexosaminidase release, in an enzyme assay with […] as substrate. […] Emission 460 nm). [table] [table] RBL2H3 cells were maintained in MEM complete media containing 10% FBS at 70%-80% confluence in a mammalian cell culture CO2 incubator with 5% CO2 at 37° C. 2×10^5 cells/well were plated in 1 mL of complete media and incubated for 5 hours for cell attachment. Complete media was replaced with 1 mL of serum free MEM media containing 1.2 μg/mL of anti-DNP rat IgE as sensitizing agent and further incubated overnight with 5% CO2 at 37° C. […] Cells were further stimulated with 5 μg/mL of DNP-BSA for 60 minutes. Plates were centrifuged for 5 minutes at 1000 rpm and 25 μL of culture supernatant was transferred from each assay well into a 96 well black coated plate. 25 μL β-NAG substrate was added to this mixture and incubated at room temperature for 30 minutes. The reaction was terminated with 100 μL of stop solution and fluorescence was monitored. (Excitation 355 nm; Emission 460 nm) See, Sanderson, (2010), Cellular Immunology, 262(1): 28-34 and Silverman, (2006) MCB, 26(5):1826-1838, which are incorporated herein by reference. The % release of β-Hexosaminidase for the test compound was calculated using the following formula: RBL2H3 cells were maintained in MEM complete media containing 10% FBS at 70-80% confluence in a mammalian cell culture CO2 incubator with 5% CO2 at 37° C. 5×10^4 cells/well were plated in 200 μL of complete media containing 0.3 μg/mL of anti-DNP rat IgE as sensitizing agent for 24 hours at 37° C. & 5% CO2. The following day, cells were washed twice with PIPES buffer for 10 minutes at 37° C. and replenished with serum free MEM media. Cells were treated with various concentrations of test compounds (in 0.5% DMSO) for 15 minutes at 37° C. and 5% CO2. The cells were further stimulated with 0.1 μg/mL of DNP-BSA for 45 minutes. The plates were spun for 5 minutes at 2000 rpm and 25 μL of culture supernatant was then transferred from each assay well into a 96 well black coated plate. […] β-NAG substrate was added and incubated at RT for 30 minutes. After incubation with substrate, 150 μL of stop solution was added and fluorescence was monitored. (Excitation 355 nm; Emission 460 nm). See, Yamamoto, JPET, 306(3):1174-1181 (2003) and Taylor, MCB, 15(8): 4149-4157 (1995), which are herein incorporated by reference. Release of β-hexosaminidase during the degranulation process by immune complex mediated FcεRI stimulation is through the SYK pathway. The % inhibition of β-hexosaminidase release by Syk inhibitor gives information with regard to its Syk inhibition potency.

[1] = target: Syk (356-635 amino acids) catalytic domain (Homo sapiens (Human), UniProt P43405); assay: Inhibition of enzymatic Syk kinase activity (radiometric); assay type: biochemical; settings: read-out: IC50 Syk
How it was run: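 Human Syk (356-635) kinase domain (0.035–7.5 ng/reaction) preincubated with compound 30 minutes at room temperature, then reacted with pG4T substrate, 100 μM ATP (stock) and γ-32P-ATP for 10 minutes at 30° C. Reaction stopped with HCl/ATP, spotted on P81 paper, washed and counted by scintillation. Percent inhibition versus no-compound counts.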

JAK2 = JAK2 (Homo sapiens (Human), UniProt O60674); assay: Inhibition of enzymatic JAK2 kinase activity (TR-FRET); assay type: biochemical; settings: read-out: IC50 JAK
Sequence of JAK2 (O60674 808-1132): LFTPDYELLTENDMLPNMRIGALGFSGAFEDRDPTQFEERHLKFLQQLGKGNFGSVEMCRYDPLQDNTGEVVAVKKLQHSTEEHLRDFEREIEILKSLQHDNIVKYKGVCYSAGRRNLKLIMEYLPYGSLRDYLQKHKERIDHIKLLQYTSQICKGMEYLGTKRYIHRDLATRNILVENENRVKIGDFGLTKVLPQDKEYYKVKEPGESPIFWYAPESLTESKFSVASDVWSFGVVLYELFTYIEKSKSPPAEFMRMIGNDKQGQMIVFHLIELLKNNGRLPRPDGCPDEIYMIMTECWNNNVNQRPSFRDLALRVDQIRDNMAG
How it was run: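 Enzyme preincubated with compound 30 min at RT, then Ulight-poly-GT substrate and ATP added for 60 min at RT. EDTA stop, Eu-antiphosphotyrosine antibody; TR-FRET ratio 665/615 nm (ex 340 nm), blank-corrected; % inhibition versus positive control.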

[2] = Rattus norvegicus, RBL-2H3, 1 μM

Row | EC50 (RBL2H3 cells; Rattus norvegicus, RBL-2H3) [nM] | IC50 [1] [nM] | IC50 (JAK2) [nM] | Structure (SMILES) | inhibition at 1 µM (RBL2H3 cells; [2]) [%] | also measured
1 | 55 |  |  | O=c1[nH]ncc2nc(N3CCCCCC3)nc(Nc3ccc(OCCN4CCCNCC4)cc3)c12 [Example 164, 4-((4-(2-(1,4-diazepan-1-yl)ethoxy)phenyl)amino)-2-(azepan-1-yl)pyrimido[4,5-d]pyridazin-5(6H)-one] |  | 
2 | 20 |  |  | N#CCC1CCN(c2nc(Nc3ccc(N4CCC(F)CC4)cc3)c3c(=O)[nH]ncc3n2)CC1 [Example 290, 2-(1-(4-((4-(4-fluoropiperidin-1-yl)phenyl)amino)-5-oxo-5,6-dihydropyrimido[4,5-d]pyridazin-2-yl)piperidin-4-yl)acetonitrile] | 100 | 
3 | 107 |  |  | CN(c1nc(Nc2ccc(N3CCC4(CC3)CC4C(=O)O)cc2)c2c(=O)[nH]ncc2n1)C1CCCCC1 (stereo not shown) [Example 170, 6-(4-((2-(cyclohexyl(methyl)amino)-5-oxo-5,6-dihydropyrimido[4,5-d]pyridazin-4-yl)amino)phenyl)-6-azaspiro[2.5]octane-1-carboxylic acid] | 39 | 
4 | 15 |  |  | N#CCC1CCN(c2nc(Nc3ccc(CCCN4CCNCC4)cc3)c3c(=O)[nH]ncc3n2)CC1 [Example 174, 2-(1-(5-oxo-4-((4-(3-(piperazin-1-yl)propyl)phenyl)amino)-5,6-dihydropyrimido[4,5-d]pyridazin-2-yl)piperidin-4-yl)acetonitrile] | 99 | 
5 |  | < 100 | < 50 | O=c1[nH]ncc2nc(N3CCCCCC3)nc(Nc3ccc(OCCN4CCN(CCO)CC4)cc3)c12 [Example 239, 2-(azepan-1-yl)-4-((4-(2-(4-(2-hydroxyethyl)piperazin-1-yl)ethoxy)phenyl)amino)pyrimido[4,5-d]pyridazin-5(6H)-one] |  | 
6 |  | < 50 | < 10 | COCCN1CCN(c2ccc(Nc3nc(N4CCCCCC4)nc4cn[nH]c(=O)c34)cc2)CC1 [Example 255, 2-(azepan-1-yl)-4-((4-(4-(2-methoxyethyl)piperazin-1-yl)phenyl)amino) pyrimido[4,5-d]pyridazin-5(6H)-one] |  | 
7 | 24 |  |  | CCN1CCN(CCOc2ccc(Nc3nc(N4CCCCCC4)nc4cn[nH]c(=O)c34)cc2)CC1 [Example 151, 2-(azepan-1-yl)-4-((4-(2-(4-ethylpiperazin-1-yl)ethoxy)phenyl)amino) pyrimido[4,5-d]pyridazin-5(6H)-one] |  | 
8 |  | < 100 | < 10 | O=c1[nH]ncc2nc(N3CCCCCC3)nc(Nc3ccc(OCCN4CCNCC4)nc3)c12 [Example 182, 2-(azepan-1-yl)-4-((6-(2-(piperazin-1-yl)ethoxy)pyridin-3-yl)amino)pyrimido[4,5-d]pyridazin-5(6H)-one] |  | 
9 |  | > 100 | > 100 | O=c1[nH]ncc2nc(N3CCCCC3)nc(Nc3ccc(OCCN4CCNCC4)nc3)c12 [Example 181, 4-((6-(2-(piperazin-1-yl)ethoxy)pyridin-3-yl)amino)-2-(piperidin-1-yl)pyrimido[4,5-d]pyridazin-5(6H)-one] |  | 
10 |  | < 50 | < 10 | O=C(O)C1CC12CCN(c1ccc(Nc3nc(N4CCCCCCC4)nc4cn[nH]c(=O)c34)cc1)CC2 (stereo not shown) [Example 141, 6-(4-((2-(azocan-1-yl)-5-oxo-5,6-dihydropyrimido[4,5-d]pyridazin-4-yl)amino)phenyl)-6-azaspiro[2.5]octane-1-carboxylic acid] |  | 
11 |  | < 50 | < 50 | N#CCC1CCN(c2nc(Nc3ccc(CCO)cc3)c3c(=O)[nH]ncc3n2)CC1 [Example 323, 2-(1-(4-((4-(2-hydroxyethyl)phenyl)amino)-5-oxo-5,6-dihydropyrimido[4,5-d]pyridazin-2-yl)piperidin-4-yl) acetonitrile] |  | 

The next lines start with the compound.

Row | Structure (SMILES) | EC50 (RBL2H3 cells; Rattus norvegicus, RBL-2H3) [nM] | IC50 [1] [nM] | IC50 (JAK2) [nM] | inhibition at 1 µM (RBL2H3 cells; [2]) [%] | also measured
12 | O=C(c1ccc(Nc2nc(N3CCCCCC3)nc3cn[nH]c(=O)c23)cc1)N1CCOCC1 [Example 68, 2-(azepan-1-yl)-4-((4-(morpholine-4-carbonyl)phenyl)amino)pyrimido[4,5-d]pyridazin-5(6H)-one] | 1.2 | < 100 |  | 100 | 
13 | O=C(O)CN1CCN(c2ccc(Nc3nc(N4CCCCCC4)nc4cn[nH]c(=O)c34)cc2)CC1 [Example 125, 2-(4-(4-((2-(azepan-1-yl)-5-oxo-5,6-dihydropyrimido[4,5-d]pyridazin-4-yl)amino)phenyl)piperazin-1-yl)acetic acid] | 238 |  |  | 38 | 
14 | CC1CC(C)CN(c2nc(Nc3ccc(N4CCC(CC(=O)O)CC4)cc3)c3c(=O)[nH]ncc3n2)C1 (stereo not shown) [Example 117, 2-(1-(4-((2-(3,5-dimethylpiperidin-1-yl)-5-oxo-5,6-dihydropyrimido[4,5-d]pyridazin-4-yl)amino)phenyl)piperidin-4-yl)acetic acid] | 95 |  |  | 89 | 
15 | O=c1[nH]ncc2nc(N3CCCCCC3)nc(Nc3ccc(OCCN4CCNCC4)cc3)c12 [Example 89, 2-(azepan-1-yl)-4-((4-(2-(piperazin-1-yl)ethoxy)phenyl)amino)pyrimido[4,5-d]pyridazin-5(6H)-one hydrochloride] |  |  |  | 100 | 
16 | O=c1[nH]ncc2nc(N3CCCCCC3)nc(Nc3ccc(N4CCN(CCO)CC4)cc3)c12 [Example 190, 2-(azepan-1-yl)-4-((4-(4-(2-hydroxyethyl)piperazin-1-yl)phenyl)amino)pyrimido[4,5-d]pyridiazin-5(6H)-one] |  |  |  |  | Degranulation % inhibition at 1 μM (RBL2H3 cells; 1 μM): 83%; EC50 (RBL2H3 cells): 21 nM
17 | N#CCC1CCN(c2ccc(Nc3nc(N4CCC(CC#N)CC4)nc4cn[nH]c(=O)c34)cn2)CC1 [Example 103, 2-(1-(5-((2-(4-(cyanomethyl)piperidin-1-yl)-5-oxo-5,6-dihydropyrimido[4,5-d]pyridazin-4-yl)amino)pyridin-2-yl)piperidin-4-yl)acetonitrile] | 32 |  |  | 87 | 
18 | O=C(O)C1CC12CCN(c1ccc(Nc3nc(-c4ccc(F)cc4)nc4cn[nH]c(=O)c34)cc1)CC2 (stereo not shown) [Example 133, 6-(4-((2-(4-fluorophenyl)-5-oxo-5,6-dihydropyrimido[4,5-d]pyridazin-4-yl)amino)phenyl)-6-azaspiro[2.5]octane-1-carboxylic acid] | 25 |  |  | 98 | 
19 | CC(C)(O)C(=O)N1CCN(CCOc2ccc(Nc3nc(N4CCCCCC4)nc4cn[nH]c(=O)c34)cc2)CC1 [Example 115, 2-(azepan-1-yl)-4-((4-(2-(4-(2-hydroxy-2-methylpropanoyl)piperazin-1-yl)ethoxy)phenyl)amino)pyrimido[4,5-d]pyridazin-5(6H)-one] |  | < 50 | < 50 |  | 
20 | N#CCC1CCN(c2ccc(Nc3nc(-c4ccccc4)nc4cn[nH]c(=O)c34)cn2)CC1 [Example 101, 2-(1-(5-((5-oxo-2-phenyl-5,6-dihydropyrimido[4,5-d]pyridazin-4-yl)amino)pyridin-2-yl)piperidin-4-yl) acetonitrile] |  | > 100 | > 100 |  | 
21 | CCN1CCN(C(=O)COc2ccc(Nc3nc(N4CCCCCC4)nc4cn[nH]c(=O)c34)cc2)CC1 [Example 269, 2-(azepan-1-yl)-4-((4-(2-(4-ethylpiperazin-1-yl)-2-oxoethoxy)phenyl)amino)pyrimido[4,5-d]pyridazin-5(6H)-one] |  | < 50 | < 50 |  | 
